The values below come from patent publication US7041787B2, “Design and use of advanced zinc chelating peptides to regulate matrix metalloproteinases” (Kimberly-Clark Worldwide, Inc., priority 2000, dated 2006).

One data set concerns Epiderm skin model. Put plainly: Epiderm skin equivalent viability (MTT) assay. Conditions: 10 mM peptide in PBS, 12 hours; differences not significant. It is filed as cell-based. The protocol:
The relative toxicity of the chelating and substrate peptides was assayed using the skin model Epiderm that is commercially available from MatTek Corp. The individual skin sample containers were preincubated in culture medium at 37° C. under 5% CO2 for two hours prior to the addition of the peptide constructs. The sample containers were transferred to 6 well plates that contained fresh media. All peptides were dissolved in PBS at a final concentration of 10 mM, and 100 μL of each peptide solution was pipetted onto the surface of the Epiderm sample container. Incubation was continued for 12 hours at 37° C. under 5% CO2. After the incubation period, the sample containers were washed three times with PBS and the sample containers were transferred to a 24 well plate that contained 300 μL of MTT assay media per well (MTT concentration was 1 mg/mL). The colorimetric assay was allowed to develop for three hours (incubation at 37° C. under 5% CO2). Sample containers were then transferred to a 24 well culture plate that contained 2 mL of isopropanol per well. […] Absorbance readings were taken at 570 nm and 650 nm for each sample. The percent viability of each sample relative to a PBS control was calculated as: 100×(OD570^sam−OD650^sam)/(OD570^con−OD650^con) (5) Routinely, each peptide sample was assayed in duplicate or triplicate. […]

Data set [1] addresses T1, MMP-9 (Homo sapiens, UniProt P14780).
T1 construct: Active MMP-9 enzyme was purchased from Calbiochem; purchased Calbiochem
Put plainly: Enzymatic hydrolysis of fluoresceinated collagen by MMP-9 (fluorescein release assay). As to conditions: MMP-9:ChePep-1 molar stoichiometries 1:0 to 1:1, FIG. 1. It is filed as biochemical. The procedure:
Two enzymatic assays were performed. The first assay measured the enzymatic hydrolysis of fluoresceinated collagen by MMP-9 as a function of time. Fluoresceinated collagen (Molecular Probes, Inc.), at a concentration of 5 μM was added to reaction buffer (50 mM Tris-HCl (pH 7.6), 150 mM NaCl, 5 mM CaCl2, 0.1 mM NaN3) and was placed into a Spectrosil quartz fluorometer cuvette. MMP at a concentration of 0.1 μM was mixed with varying amounts of chelating peptide having SEQ ID No. 4 or 6 and incubated at 25° C. for 10 minutes to effect binding. The protein mixture was added to the collagen substrate and mixed quickly. Fluorescence emission intensity at 520 nm was measured as a function of time (excitation wavelength 495 nm) in a Shimadzu RF5301 fluorometer. The fluorescein release assay was used to determine the inhibitory constant (Ki) of the chelating peptide inhibitor ([I]) according to Segel (1993) via the use of Dixon plots (1/v vs. [I]), such that: slope=Km/(VmaxKi[S]) (1) where Km is the Michaelis constant, Vmax is the reaction maximum velocity, and [S] is the substrate concentration.

Data set [2] concerns the target T1, MMP-9. Put plainly: FRET substrate peptide cleavage assay with MMP-9. Format: biochemical. Conditions: for Regulation of MMP-9 in FRET assay (in words): ChePep:MMP-9 molar stoichiometries 0.1:1 to 0.3:1, FIGS. 2-5; for Regulation of MMP-9 compared with other ChePeps (in words): FRET assay, comparison of molar stoichiometries. The procedure:
The second assay utilized the technique of fluorescence resonance energy transfer (FRET). The substrate peptide (Calbiochem #444221) comprised seven amino acids, coupled to a carboxyl terminal dinitrophenyl acceptor, and an amino terminal 2-aminobenzo-anthraniloyl (Abz) moiety donor. Cleavage of this substrate by MMP-9 results in the liberation of a fluorescent product (365 nm excitation, 450 nm emission). […] MMP at a concentration of 0.1 μM was mixed with varying amounts of chelating peptide (0, 0.01, 0.02, 0.04, and 0.1 μM) and incubated at 25° C. for 10 minutes to effect binding. The protein mixture was added to the peptide substrate and mixed quickly. Fluorescence intensity as a function of time was measured with a Dynex MFX fluorescence microtiter plate reader. Fluorescence intensity was related back to moles of peptide cleaved by producing a standard curve with an Abz containing non-FRET peptide. Inhibitory constants were derived from the curves and are listed below in Table 2.

The target of data set [3] is T1, MMP-9. Put plainly: Surface plasmon resonance (BiaCore) binding of chelating peptide to immobilized MMP-9. Conditions: FIG. 6. The procedure: The BiaCore-X surface plasmon resonance (SPR) device was utilized to measure the interaction between the chelating peptide (CP) and MMP-9. For these experiments a carboxymethyl dextran sensor chip (BiaCore, AB; CM-5, Lofas et al., 1993) was activated with 50 mM N-hydroxysuccinimide, 0.2 M N-ethyl-N′-(dimethylaminopropyl)-carbodiimide at a flow rate of 10 μL per minute for ten minutes. MMP-9 at a concentration of 75 ng/μL was coupled to the activated surface at a flow rate of 10 μL per minute for ten minutes. The final surface was inactivated by flowing 1 M ethanolamine HCl at a rate of 10 μL per minute for five minutes over the sensor surface. CP was flowed over the sensor surface at a rate of 20 μL per minute, and at concentrations of 10, 25, and 50 nM. Binding isotherms were evaluated by simultaneously fitting the forward (ka) and reverse (kd) rate constants to the following formula: d[CP˜MMP-9]/dt=(ka[CP][MMP-9])−(kd[CP˜MMP-9]) (2) (Karlsson and Falt, 1997) where [CP], [MMP-9], and [CP˜MMP-9] are the concentrations of free chelating peptide, free MMP-9, and the complex respectively. […]
For orientation: Surface plasmon resonance follows binding to a sensor surface in real time, without labels.

*1 amine or outer side, *2 acyl side, *3 side chain or, on linkers, in order; H or OH if unused. Where a SMILES comes first, the peptide text is derived from it. [ ]: non-standard residue; d: D form. The star is where a group is joined. X2 = O=C(O)CN(CC(=O)O)CC(=O)NC(=O)C[C@H](N[*:1])C(=O)[*:2]; X3 = O=C(O)CN(CC(=O)O)CC(C(=O)NCCS*)N(CC(=O)O)CC(=O)O; X1 = O=C(O)CN(CC(=O)O)c1cc(F)ccc1OCC(=O)*

T1 sequence (P14780 107-707 limits assumed): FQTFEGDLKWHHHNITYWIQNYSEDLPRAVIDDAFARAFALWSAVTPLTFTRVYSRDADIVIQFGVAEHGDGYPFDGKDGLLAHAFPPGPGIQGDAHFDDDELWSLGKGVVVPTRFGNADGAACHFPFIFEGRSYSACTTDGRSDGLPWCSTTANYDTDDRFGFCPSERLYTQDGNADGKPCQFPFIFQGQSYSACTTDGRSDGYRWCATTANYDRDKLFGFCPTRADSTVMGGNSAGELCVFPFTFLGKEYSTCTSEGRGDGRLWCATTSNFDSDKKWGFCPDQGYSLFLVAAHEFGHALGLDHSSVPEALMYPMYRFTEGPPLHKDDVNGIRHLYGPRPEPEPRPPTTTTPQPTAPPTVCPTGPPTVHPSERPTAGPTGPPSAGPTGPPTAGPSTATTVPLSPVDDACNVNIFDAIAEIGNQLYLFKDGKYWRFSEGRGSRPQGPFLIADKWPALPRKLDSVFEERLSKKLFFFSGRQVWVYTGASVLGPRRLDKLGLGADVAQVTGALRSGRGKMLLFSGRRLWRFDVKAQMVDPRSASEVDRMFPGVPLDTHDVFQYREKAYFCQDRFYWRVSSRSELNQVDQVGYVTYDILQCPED

In the case of “2-amino-4-fluorophenol N,N,O triacetic acid [AFTA]”, the “Percent viability relative to PBS control, by zinc chelator of the construct” value with Epiderm skin model worked out at 90.5%.
`CC(C)[C@H](NC(=O)[C@@H]1CCCN1C(=O)[C@@H](NC(=O)[C@H](C)NC(=O)[C@H](CO)NC(=O)[C@@H](N)CSSCCNC(=O)C(CN(CC(=O)O)CC(=O)O)N(CC(=O)O)CC(=O)O)C(C)C)C(=O)N[C@@H](Cc1c[nH]cn1)C(=O)O` (some centres unmarked) [ChePep-1] (H-C(X3)SAVPVH-OH): at MMP-9 [1], the “Regulation of MMP-9 hydrolysis of fluoresceinated collagen (in words)” value was “prevents the enzyme from degrading fluoresceinated collagen in a dose dependent manner”.
With `CC(C)[C@H](NC(=O)[C@@H]1CCCN1C(=O)[C@@H](NC(=O)[C@H](C)NC(=O)[C@H](CO)NC(=O)[C@@H](N)CC(=O)NC(=O)CN(CC(=O)O)CC(=O)O)C(C)C)C(=O)N[C@@H](Cc1c[nH]cn1)C(N)=O` [ChePep-2] (H-[X2]SAVPVH-NH2), at MMP-9 [2], the “Regulation of MMP-9 in FRET assay (in words)” value is on record as “dose dependent manner” and the “Regulation of MMP-9 compared with other ChePeps (in words)” value is given as “significantly more effective in regulating MMP-9 than was ChepPep-1”.
As for `CC[C@H](C)[C@H](N)C(=O)N[C@@H](Cc1ccc(O)cc1)C(=O)N[C@H](C(=O)N[C@@H](C)C(=O)N[C@@H](CSSCCNC(=O)C(CN(CC(=O)O)CC(=O)O)N(CC(=O)O)CC(=O)O)C(=O)N[C@@H](CCSC)C(=O)N[C@@H](CO)C(=O)N[C@@H](C)C(=O)N[C@H](C(N)=O)C(C)C)[C@@H](C)O` (some centres unmarked) [ChePep-3] (H-IYTAC(X3)MSAV-NH2; N-terminus assumed), the “Regulation of MMP-9 compared with other ChePeps (in words)” value at MMP-9 [2] was “nearly identical ability to regulate MMP-9”.
Still for that read-out and setting: the value for `CC[C@H](C)[C@H](N)C(=O)N[C@@H](Cc1ccc(O)cc1)C(=O)N[C@H](C(=O)N[C@@H](C)C(=O)N[C@@H](CC(=O)NC(=O)CN(CC(=O)O)CC(=O)O)C(=O)N[C@@H](CCSC)C(=O)N[C@@H](CO)C(=O)N[C@@H](C)C(=O)N[C@H](C(N)=O)C(C)C)[C@@H](C)O` [ChePep-4] (H-IYTA[X2]MSAV-NH2; N-terminus and C-terminus assumed) was “nearly identical ability to regulate MMP-9”.
Take `CC(C)C(NC(=O)C(CS)NC(=O)C(NC(=O)C(CS)NC(=O)COc1ccc(F)cc1N(CC(=O)O)CC(=O)O)C(C)O)C(=O)N1CCCC1C(=O)O` (centres unmarked) [ChePep-6] (X1-CTCVP-OH; configuration not given here): on MMP-9 [2], the “Regulation of MMP-9 in FRET assay (in words)” value is reported as “effective MMP-9 regulator at low molar stoichiometries” and the “Regulation of MMP-9 compared with other ChePeps (in words)” value is “most potent regulator of all the ChePeps”. The “SPR association / affinity for immobilized MMP-9 (in words)” value at MMP-9 [3] (400 second association phase, 20 μL per minute) was “binds quickly and with high affinity”. Moreover, the “SPR dissociation from immobilized MMP-9 (in words)” value at MMP-9 [3] (800 second dissociation phase) is “does not dissociate”.
On to “pyridine disulfide ethylenediaminetetraacetic acid [PSDE]”, for which, in the data set on Epiderm skin model, the “Percent viability relative to PBS control, by zinc chelator of the construct” value is recorded as 96.5%.
